Source: patent publication US8536175B2, “Quinoxaline carboxamide derivatives as protein tyrosine kinase inhibitors” (Novartis AG, priority 2008, dated 2013)
Where two headings read alike, the source gives them in different places.

Target: FGFR3 kinase (Homo sapiens (Human), UniProt P22607, K650E)
Assay: FGFR3 kinase inhibition (protein kinase activity assays)
Format: biochemical
Experimental: generic assay set-up: Enzyme activities were measured by mixing 10 μL of a 3-fold concentrated compound solution or control with 10 μL of the corresponding substrate mixture (peptidic substrate, ATP and [γ^33P]ATP). The reactions were initiated by addition of 10 μL of a 3-fold concentrated solution of the respective enzyme in assay buffer. […] Filter binding (FB) method: FB assays were carried out in 96-well plates at room temperature for 10 min in a finial volume of 30 μL including the components as indicated in section above. […] After spotting, vacuum was connected and each well rinsed with 200 μL 0.5% H3PO4. Free membranes were removed and washed 4 times on a shaker with 1% H3PO4 and once with ethanol. Membranes were dried and overlaid with addition of 10 μL/well of a scintillation fluid. The plates were eventually sealed and counted in a microplate scintillation counter. IC50 values were calculated by linear regression analysis of the percentage inhibition of the compound.
generic assay set-up: The assay has been run at room temperature on a liquid handling robot. […] After an incubation time of 45 min in the dark, the plates were transferred into a fluorescence reader for counting.
Compounds of formula (I) are assayed to measure their capacity to inhibit FGFR3 kinase as described above.

[1] = read-out: rating (FGFR3 kinase IC50)

Chain of FGFR3 kinase (P22607 23-806 K650E): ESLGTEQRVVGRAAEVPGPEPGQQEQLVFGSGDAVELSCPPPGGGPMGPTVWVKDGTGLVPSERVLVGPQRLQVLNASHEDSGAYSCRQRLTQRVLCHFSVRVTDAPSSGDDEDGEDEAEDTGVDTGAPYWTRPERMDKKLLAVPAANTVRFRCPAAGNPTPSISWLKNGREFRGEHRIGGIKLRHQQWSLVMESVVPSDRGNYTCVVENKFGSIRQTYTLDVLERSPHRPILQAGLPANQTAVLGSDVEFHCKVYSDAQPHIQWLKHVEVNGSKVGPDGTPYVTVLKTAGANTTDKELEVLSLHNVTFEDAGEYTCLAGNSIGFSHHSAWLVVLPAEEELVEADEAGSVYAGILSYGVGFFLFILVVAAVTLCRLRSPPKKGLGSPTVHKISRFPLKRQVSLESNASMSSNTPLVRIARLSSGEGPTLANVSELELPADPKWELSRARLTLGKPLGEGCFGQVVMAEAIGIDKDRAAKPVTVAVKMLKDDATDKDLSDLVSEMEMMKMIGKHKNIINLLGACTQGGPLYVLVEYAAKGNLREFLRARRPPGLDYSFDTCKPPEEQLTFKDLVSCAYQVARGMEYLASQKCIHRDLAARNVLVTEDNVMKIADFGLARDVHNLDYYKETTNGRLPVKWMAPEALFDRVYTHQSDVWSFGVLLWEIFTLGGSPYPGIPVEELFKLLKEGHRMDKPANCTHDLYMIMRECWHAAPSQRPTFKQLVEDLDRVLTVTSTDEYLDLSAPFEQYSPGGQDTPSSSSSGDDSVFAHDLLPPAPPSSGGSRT

Row | IC50 [1] [nM] | IC50 (average of 2 independent measurements, * single value, read-out: FGFR3 IC50) [nM] | SMILES
1 | < 100 |  | COc1cc(OC)c(Cl)c(-c2ccc(C(=O)Nc3ccc(CN4CCN(C)CC4)cn3)c3ncccc23)c1Cl [Example 164, 5-(2,6-Dichloro-3,5-dimethoxy-phenyl)-quinoline-8-carboxylic acid [5-(4-methyl-piperazin-1-ylmethyl)-pyridin-2-yl]amide]
2 | 100 to 500 |  | COc1cc(OC)c(Cl)c(-c2ccc(C(=O)Nc3cnc[nH]3)c3ncccc23)c1Cl [Example 162, 5-(2,6-Dichloro-3,5-dimethoxy-phenyl)-quinoline-8-carboxylic acid (3H-imidazol-4-yl)-amide]
3 |  | > 10000 | CCN1CCN(Cc2ccc(NC(=O)c3ccc(-c4cc(C)c[n+]([O-])c4C)c4nccnc34)nc2)CC1 [Example 99, 8-(2,5-Dimethyl-1-oxy-pyridin-3-yl)-quinoxaline-5-carboxylic acid [5-(4-ethyl-piperazin-1-ylmethyl)-pyridin-2-yl]-amide]
